By MIC is commonly meant the lowest concentration found to suppress growth. Broadly, the GI50 is the concentration at which growth is held to half of that of the control. Lower therefore signals greater sensitivity of the cells.

The structures appear in SMILES notation. Values after ≈ are worked out from the molar mass of the structure shown. Active and inactive are the calls of the source. The calls are words filed in the database; no cut-off is given here.

For one experiment, the system named is Escherichia coli. The experiment in a line: Antimicrobial activity against Escherichia coli. Format: functional.
The test system of the next experiment is BXPC-3. The experiment in a line: Cytotoxicity against human BxPC3 cells after 48 hrs by SRB assay. The conditions noted are these: BXPC-3, 48 h. Type of experiment: functional. For orientation: Sulforhodamine B stains cellular protein and so reports cell mass.
Another experiment has as its system KM-20L2. The experiment can be described thus: Cytotoxicity against human KM20L2 cells after 48 hrs by SRB assay. Type of experiment: functional. Conditions: KM-20L2, 48 h.
Another experiment deals with MCF7. The experiment can be described thus: Cytotoxicity against human MCF7 cells after 48 hrs by SRB assay. Format: functional. The conditions noted are these: MCF7, 48 h.
For the next experiment, the system named is Micrococcus luteus. The experiment can be described thus: Antimicrobial activity against Micrococcus luteus. Format: functional, organism-based.
For experiment [1], the system named is Stenotrophomonas maltophilia. The experiment in a line: Antimicrobial activity against Stenotrophomonas maltophilia. Type of experiment: functional, organism-based.
In another experiment the test system is Neisseria gonorrhoeae. The experiment in a line: Antimicrobial activity against Neisseria gonorrhoeae. Type of experiment: functional.
The subject of another experiment is Candida albicans. The experiment in a line: Antimicrobial activity against Candida albicans. Format: functional, organism-based.
Another experiment concerns Streptococcus pneumoniae. The experiment in a line: Antimicrobial activity against Streptococcus pneumoniae. Type of experiment: functional, organism-based.
Another experiment deals with NCI-H460. The experiment in a line: Cytotoxicity against human NCI-H460 cells after 48 hrs by SRB assay. Type of experiment: functional. Conditions: NCI-H460, 48 h.
The next experiment has as its system SF-268. The experiment can be described thus: Cytotoxicity against human SF268 cells after 48 hrs by SRB assay. Type of experiment: functional. The conditions noted are these: SF-268, 48 h.
In the next experiment the test system is Enterobacter cloacae. The experiment can be described thus: Antimicrobial activity against Enterobacter cloacae. Type of experiment: functional, organism-based.
In the next experiment the test system is DU-145. The experiment can be described thus: Cytotoxicity against human DU145 cells after 48 hrs by SRB assay. Type of experiment: functional. The conditions noted are these: DU-145, 48 h.
In another experiment the test system is P388. The experiment can be described thus: Cytotoxicity against mouse P388 cells after 48 hrs by SRB assay. Conditions: P388, 48 h. Format: functional.
A further experiment has as its system Cryptococcus neoformans. The experiment in a line: Antimicrobial activity against Cryptococcus neoformans. Type of experiment: functional, organism-based.
The test system of a further experiment is Staphylococcus aureus. The experiment can be described thus: Antimicrobial activity against Staphylococcus aureus. Type of experiment: functional, organism-based.

On to `COc1cc([C@H]2Oc3cc(-c4cc(=O)c5c(O)cc(O)cc5o4)cc(OC)c3O[C@@H]2CO)ccc1O`, for which the values for the minimum inhibitory concentration (MIC) against Escherichia coli and in the experiment with Neisseria gonorrhoeae were 32 µg/mL (≈ 64.7 µM) and 0.625 µg/mL (≈ 1.26 µM), respectively. For the same molecule, the GI50 in the experiment on BXPC-3 was 1.8 µg/mL (≈ 3.64 µM); in the experiment with KM-20L2, 1.9 µg/mL (≈ 3.84 µM); in the experiment on MCF7 it was 2.4 µg/mL (≈ 4.85 µM); in the experiment on NCI-H460 it was 2 µg/mL (≈ 4.04 µM); with SF-268, 2.2 µg/mL (≈ 4.45 µM); in the experiment on DU-145 it was 1.8 µg/mL (≈ 3.64 µM). Moreover, the GI50 in the experiment with P388 was found to be 2.7 µg/mL (≈ 5.46 µM). Also, the result (in the experiment with Micrococcus luteus; in experiment [1]; with Candida albicans; with Streptococcus pneumoniae; in the experiment on Enterobacter cloacae; in the experiment on Cryptococcus neoformans) was inactive. Further, the outcome in the experiment with Staphylococcus aureus was inactive.
As for `COc1cc(-c2cc(=O)c3c(O)cc(O)cc3o2)ccc1O` [CHRYSOERIOL], the GI50 in the experiment with BXPC-3 is 2.6 µg/mL (≈ 8.66 µM); with KM-20L2, 2.5 µg/mL (≈ 8.33 µM); with MCF7, 3.1 µg/mL (≈ 10.3 µM); with NCI-H460, 2.1 µg/mL (≈ 6.99 µM); in the experiment on SF-268, 1.7 µg/mL (≈ 5.66 µM); in the experiment with DU-145, 1.1 µg/mL (≈ 3.66 µM). The same molecule returned a concentration for 50% growth inhibition (GI50) in the experiment on P388 of 4 µg/mL (≈ 13.3 µM). For the same molecule, the result (with Micrococcus luteus; in experiment [1]; with Candida albicans; in the experiment with Streptococcus pneumoniae; in the experiment with Enterobacter cloacae; in the experiment on Cryptococcus neoformans) was inactive. The outcome in the experiment on Staphylococcus aureus was inactive.
Consider `COc1cc([C@H]2Oc3cc(-c4cc(=O)c5c(O)cc(O)cc5o4)ccc3O[C@@H]2CO)ccc1O` [HYDNOCARPIN], for which the concentration for 50% growth inhibition (GI50) stood at 1.5 µg/mL (≈ 3.23 µM) in the experiment on BXPC-3; 2 µg/mL (≈ 4.31 µM) in the experiment on KM-20L2; 2.7 µg/mL (≈ 5.81 µM) with MCF7; 2.3 µg/mL (≈ 4.95 µM) with NCI-H460; 2.6 µg/mL (≈ 5.6 µM) in the experiment with SF-268; 1.9 µg/mL (≈ 4.09 µM) in the experiment with DU-145. The molecule further registered a 50% growth inhibitory concentration (GI50) with P388 of 9.5 µg/mL (≈ 20.5 µM). In addition, the result (in the experiment with Micrococcus luteus; in experiment [1]; in the experiment with Candida albicans; in the experiment with Streptococcus pneumoniae; in the experiment with Enterobacter cloacae; in the experiment on Cryptococcus neoformans) was inactive. For the same molecule, in the experiment with Staphylococcus aureus, the outcome was inactive. In the experiment with Neisseria gonorrhoeae, this molecule came in with an MIC of 0.5 µg/mL (≈ 1.08 µM).
Turning to `O=c1cc(-c2ccc(O)c(O)c2)oc2cc(O)cc(O)c12` [LUTEOLIN], the values for the minimum inhibitory concentration (MIC) against Escherichia coli and against Neisseria gonorrhoeae were 64 µg/mL (≈ 224 µM) and 16 µg/mL (≈ 55.9 µM), respectively. Besides, the GI50 in the experiment with BXPC-3 is greater than 10 µg/mL; with KM-20L2 it was greater than 10 µg/mL; in the experiment with MCF7, 9.4 µg/mL (≈ 32.8 µM); in the experiment with NCI-H460 it was 3.8 µg/mL (≈ 13.3 µM); in the experiment on SF-268, 9 µg/mL (≈ 31.4 µM); with DU-145, 4.4 µg/mL (≈ 15.4 µM). The concentration for 50% growth inhibition (GI50) in the experiment with P388 is greater than 10 µg/mL. Moreover, the outcome (in the experiment with Micrococcus luteus; in experiment [1]; with Candida albicans; in the experiment with Streptococcus pneumoniae; in the experiment with Enterobacter cloacae; in the experiment with Cryptococcus neoformans) was inactive. Besides, the outcome in the experiment on Staphylococcus aureus was inactive.
With `COc1cc([C@H]2Oc3cc(-c4cc(=O)c5c(O)cc(O)cc5o4)cc(OC)c3O[C@@H]2CO)cc(OC)c1O` [PALSTATIN], the concentration for 50% growth inhibition (GI50) with BXPC-3 is 3.2 µg/mL (≈ 6.1 µM); with KM-20L2 it was greater than 10 µg/mL; with MCF7, 3.6 µg/mL (≈ 6.86 µM); with NCI-H460, 5.9 µg/mL (≈ 11.2 µM); with SF-268, greater than 10 µg/mL; in the experiment on DU-145, greater than 10 µg/mL. Also, growth with P388 was halved (GI50) at 8.5 µg/mL (≈ 16.2 µM). In addition, the result (with Micrococcus luteus; in experiment [1]; in the experiment with Candida albicans; in the experiment on Streptococcus pneumoniae; with Enterobacter cloacae; in the experiment with Cryptococcus neoformans) was inactive. In the experiment on Staphylococcus aureus, the result was inactive. The minimum inhibitory concentration (MIC) with Neisseria gonorrhoeae was found to be 1 µg/mL (≈ 1.91 µM).
As to `COc1cc(-c2cc(=O)c3c(O)cc(O)cc3o2)cc(OC)c1O` [TRICIN], the 50% growth inhibitory concentration (GI50) is 7.5 µg/mL (≈ 22.7 µM) in the experiment on BXPC-3; greater than 10 µg/mL in the experiment on KM-20L2; 7.7 µg/mL (≈ 23.3 µM) in the experiment with MCF7; 6.5 µg/mL (≈ 19.7 µM) with NCI-H460; 3 µg/mL (≈ 9.08 µM) with SF-268; 4.6 µg/mL (≈ 13.9 µM) in the experiment with DU-145. In addition, the GI50 in the experiment with P388 was greater than 10 µg/mL. For the same molecule, the outcome (in the experiment on Micrococcus luteus; in experiment [1]; in the experiment with Candida albicans; in the experiment with Streptococcus pneumoniae; in the experiment on Enterobacter cloacae; with Cryptococcus neoformans) was inactive. For the same molecule, the result in the experiment with Staphylococcus aureus was inactive.

Source of the values: ChEMBL document CHEMBL1159343, “Isolation and structure of palstatin from the Amazon tree Hymeneae palustris(1)” (2003).
